The values that follow are results of earlier work, collected in patent US20080057123A1, “Controlled Release Formulations” (Jagotec AG, priority 2006, published 2008).

For `COC(=O)C1=C(C)NC(C)=C(C(=O)OCC(C)C)C1c1ccccc1[N+](=O)[O-]` (centres unmarked) [Nisoldipine], where the note is “ethanol”, the solubility in ethanol entry is “soluble”. Further, the solubility in water result (water) is “practically insoluble”.
